The text below walks through data of ChEMBL document CHEMBL3352544, “Screening and identification of novel compounds with potential anti-proliferative effects on gallium-resistant lung cancer through an AXL kinase pathway” (Bioorg Med Chem Lett, 2014).

pIC50: −log10 of the molar value. Calls of active or inactive are those of the source. No cut-off for these calls is given here.

Common to all, as to type: functional, cell-based
Test [1] concerns A549. Kind of test: Antiproliferative activity against gallium-sensitive human A549 cells after 48 hrs by MTT assay. Conditions: A549, 48 h. On the technique in general: Formazan colour is commonly taken as a measure of viable cells.
Test [2] has as its system A549. Kind of test: Antiproliferative activity against gallium-resistant human A549 cells after 48 hrs by MTT assay. Particulars: A549, 48 h.
The subject of test [3] is A549. Kind of test: Potentiation of gallium acetylacetonate-induced antiproliferative activity against gallium-sensitive human A549 cells at 0.25 uM after 48 hrs by MTT assay.
For test [4], the system named is A549. As to the kind of experiment: Potentiation of gallium acetylacetonate-induced antiproliferative activity against gallium-resistant human A549 cells at 0.25 uM after 48 hrs by MTT assay.
In test [5] the test system is A549. Kind of test: Potentiation of gallium acetylacetonate-induced antiproliferative activity against gallium-resistant human A549 cells assessed as allium acetylacetonate IC50 at 0.25 uM after 48 hrs by MTT assay. Particulars: A549, 48 h.
Test [6] concerns A549. As to the kind of experiment: Effect on AXL protein expression in gallium-sensitive human A549 cells at 50 uM fter 48 hrs by immunofluorescence assay.
Test [7] deals with A549. As to the kind of experiment: Reduction in AXL protein expression in gallium-resistant human A549 cells at 50 uM fter 48 hrs by immunofluorescence assay.

The term pIC50 denotes −log10 of the IC50, conventionally taken in molar units. As for `Oc1c(CN2CCN(Cc3ccc4cccnc4c3O)CC2)ccc2cccnc12`, the pIC50 in test [1] is 5.44; in test [2] it was 5.55; in test [5], 3.99. Moreover, the result in test [3] and in test [6] was inactive. The outcome in test [4] and in test [7] was Active.

For `O=C(CSc1nnnn1-c1cccc2ccccc12)c1ccc(O)c(O)c1`, the pIC50 is 5.07 in test [1], 4.76 in test [2] and 3.70 in test [5]. In addition, the result in test [3] and in test [6] was inactive. Also, the result in test [4] and in test [7] was Active.
